How the values were obtained:
Format in all cases: in vivo
Settings in all cases: evaluated after 13 days
Lolium perenne (LOLPE) [1] = test: Pre-emergence herbicide test, glasshouse, percentage damage
Method: (§1) Seeds of a variety of test species are sown in standard soil in pots (Lolium perenne (LOLPE), Solanum nigrum (SOLNI), Amaranthus retoflexus (AMARE), Setaria faberi (SETFA), Echinochloa crus-galli (ECHCG), Ipomoea hederacea (IPOHE)). After cultivation for one day (pre-emergence) or after 8 days cultivation (post-emergence) under controlled conditions in a glasshouse (at 24/16° C., day/night; 14 hours light; 65% humidity), the plants are sprayed with an aqueous spray solution derived from the formulation of the technical active ingredient in acetone/water (50:50) solution containing 0.5% Tween 20 (polyoxyethelyene sorbitan monolaurate, CAS RN 9005-64-5). Compounds are applied at 500 g/ha unless otherwise stated. The test plants are then grown in a glasshouse under controlled conditions in a glasshouse (at 24/16° C., day/night; 14 hours light; 65% humidity) and watered twice daily. After 13 days for pre and post-emergence, the test is evaluated for the percentage damage caused to the plant. The biological activities are shown in the following table on a five point scale (5=81-100%; 4=61-80%; 3=41-60%; 2=21-40%; 1=0-20%).

[2] = test system: Amaranthus retoflexus (AMARE); test: as above
Method: as §1

Setaria faberi (SETFA) [3] = test: as above
Method: as §1

Solanum nigrum (SOLNI) [4] = test: as above
Method: as §1

[5] = test system: Echinochloa crus-galli (ECHCG); test: as above
Method: as §1

[6] = test system: Ipomoea hederacea (IPOHE); test: as above
Method: as §1

Lolium perenne (LOLPE) [7] = test: Post-emergence herbicide test, glasshouse, percentage damage
Method: as §1

[8] = test system: Amaranthus retoflexus (AMARE); test: as above
Method: as §1

Setaria faberi (SETFA) [9] = test: as above
Method: as §1

Solanum nigrum (SOLNI) [10] = test: as above
Method: as §1

[11] = test system: Echinochloa crus-galli (ECHCG); test: as above
Method: as §1

[12] = test system: Ipomoea hederacea (IPOHE); test: as above
Method: as §1

| Structure (SMILES) | Pre-emergence Test LOLPE percentage damage (five point scale) (Lolium perenne (LOLPE) [1]; rate 1000 g/ha) | Pre-emergence Test AMARE percentage damage (five point scale) ([2]; rate 1000 g/ha) | Pre-emergence Test SETFA percentage damage (five point scale) (Setaria faberi (SETFA) [3]; rate 1000 g/ha) | Pre-emergence Test SOLNI percentage damage (five point scale) (Solanum nigrum (SOLNI) [4]; rate 1000 g/ha) | Pre-emergence Test ECHCG percentage damage (five point scale) ([5]; rate 1000 g/ha) | Pre-emergence Test IPOHE percentage damage (five point scale) ([6]; rate 1000 g/ha) | percentage damage caused to the plant, LOLPE (Lolium perenne (LOLPE) [7]; 1000 g/ha) | percentage damage caused to the plant, AMARE ([8]; 1000 g/ha) | percentage damage caused to the plant, SETFA (Setaria faberi (SETFA) [9]; 1000 g/ha) | percentage damage caused to the plant, SOLNI (Solanum nigrum (SOLNI) [10]; 1000 g/ha) | percentage damage caused to the plant, ECHCG ([11]; 1000 g/ha) | percentage damage caused to the plant, IPOHE ([12]; 1000 g/ha) | other results |
| --- | --- | --- | --- | --- | --- | --- | --- | --- | --- | --- | --- | --- | --- |
| FC(F)c1cc(-c2c(Cl)cccc2Oc2ncc(Cl)cc2Cl)on1 [Compound A109] | 2 (2=21-40%) | 4 (4=61-80%) | 4 (4=61-80%) | 3 (3=41-60%) | 2 (2=21-40%) | 1 (1=0-20%) | 3 (3=41-60%) | 5 (5=81-100%) | 5 (5=81-100%) | 5 (5=81-100%) | 4 (4=61-80%) | 4 (4=61-80%) | – |
| Fc1cc(Cl)cnc1Oc1cccc(F)c1-c1cc(C(F)(F)F)no1 [Compound A31] | 5 (5=81-100%) | 5 (5=81-100%) | 5 (5=81-100%) | 5 (5=81-100%) | 5 (5=81-100%) | 5 (5=81-100%) | 5 (5=81-100%) | 5 (5=81-100%) | 5 (5=81-100%) | 5 (5=81-100%) | 5 (5=81-100%) | 5 (5=81-100%) | – |
| Fc1cc(Br)cnc1Oc1cccc(Br)c1-c1cc(C(F)F)no1 [Compound A103] | 5 (5=81-100%) | 5 (5=81-100%) | 5 (5=81-100%) | 3 (3=41-60%) | 5 (5=81-100%) | 5 (5=81-100%) | 5 (5=81-100%) | 5 (5=81-100%) | 5 (5=81-100%) | 5 (5=81-100%) | 4 (4=61-80%) | 5 (5=81-100%) | – |
| Fc1cc(Cl)cnc1Oc1c(F)cccc1-c1cc(C(F)F)no1 [Compound A93] | 3 (3=41-60%) | 4 (4=61-80%) | 4 (4=61-80%) | 4 (4=61-80%) | 4 (4=61-80%) | 3 (3=41-60%) | 3 (3=41-60%) | 5 (5=81-100%) | 5 (5=81-100%) | 3 (3=41-60%) | 4 (4=61-80%) | 3 (3=41-60%) | – |
| CS(=O)(=O)c1cnc(Oc2cccc(F)c2-c2cc(C(F)F)no2)c(F)c1 [Compound A39] | 1 (1=0-20%) | 5 (5=81-100%) | 1 (1=0-20%) | 1 (1=0-20%) | 1 (1=0-20%) | 1 (1=0-20%) | 1 (1=0-20%) | 3 (3=41-60%) | 1 (1=0-20%) | 3 (3=41-60%) | 1 (1=0-20%) | 1 (1=0-20%) | – |
| Fc1cccc(Oc2ccc(C(F)(F)F)cn2)c1-c1cc(C(F)F)no1 [Compound A6] | – | – | – | – | – | – | – | – | – | – | – | – | Pre-emergence Test LOLPE percentage damage (five point scale) (Lolium perenne (LOLPE) [1]; rate 500 g/ha): 4 (4=61-80%); Pre-emergence Test AMARE percentage damage (five point scale) ([2]; rate 500 g/ha): 5 (5=81-100%); Pre-emergence Test SETFA percentage damage (five point scale) (Setaria faberi (SETFA) [3]; rate 500 g/ha): 5 (5=81-100%); Pre-emergence Test SOLNI percentage damage (five point scale) (Solanum nigrum (SOLNI) [4]; rate 500 g/ha): 5 (5=81-100%); Pre-emergence Test ECHCG percentage damage (five point scale) ([5]; rate 500 g/ha): 4 (4=61-80%); Pre-emergence Test IPOHE percentage damage (five point scale) ([6]; rate 500 g/ha): 2 (2=21-40%); percentage damage caused to the plant, LOLPE (Lolium perenne (LOLPE) [7]; 500 g/ha): 4 (4=61-80%); percentage damage caused to the plant, AMARE ([8]; 500 g/ha): 4 (4=61-80%); percentage damage caused to the plant, SETFA (Setaria faberi (SETFA) [9]; 500 g/ha): 5 (5=81-100%); percentage damage caused to the plant, SOLNI (Solanum nigrum (SOLNI) [10]; 500 g/ha): 5 (5=81-100%); percentage damage caused to the plant, ECHCG ([11]; 500 g/ha): 5 (5=81-100%); percentage damage caused to the plant, IPOHE ([12]; 500 g/ha): 3 (3=41-60%) |
| N#Cc1cccnc1Oc1cccc(F)c1-c1cc(C(F)F)no1 [Compound A49] | 1 (1=0-20%) | 5 (5=81-100%) | 5 (5=81-100%) | 5 (5=81-100%) | 3 (3=41-60%) | 1 (1=0-20%) | 1 (1=0-20%) | 5 (5=81-100%) | 2 (2=21-40%) | 5 (5=81-100%) | 3 (3=41-60%) | 3 (3=41-60%) | – |
| Fc1cc(Cl)cnc1Oc1ccccc1-c1cc(C(F)F)no1 [Compound A43] | 5 (5=81-100%) | 5 (5=81-100%) | 5 (5=81-100%) | 5 (5=81-100%) | 5 (5=81-100%) | 4 (4=61-80%) | 5 (5=81-100%) | 5 (5=81-100%) | 5 (5=81-100%) | 5 (5=81-100%) | 4 (4=61-80%) | 4 (4=61-80%) | – |
| O=[N+]([O-])c1cccc(Oc2ncc(Cl)cc2F)c1-n1cc(C(F)(F)F)cn1 [Compound A46] | 1 (1=0-20%) | 4 (4=61-80%) | 5 (5=81-100%) | 1 (1=0-20%) | 4 (4=61-80%) | 1 (1=0-20%) | 3 (3=41-60%) | 5 (5=81-100%) | 4 (4=61-80%) | 5 (5=81-100%) | 3 (3=41-60%) | 2 (2=21-40%) | – |

— patent publication US12227495B2, “Herbicidal compounds” (SYNGENTA CROP PROTECTION AG, priority 2018, dated 2025)
